This experiment has as its target T1, β-xylosidase (SSO3032) (Saccharolobus solfataricus, UniProt Q97UI4).
T1 construct: full gene cloned in pSVAmalFX-Nt6H (His6 tag)
Briefly: colorimetric pNP release at […] nm. The conditions noted are these: 1 mM pNPX, 50 mM sodium acetate pH 6.0, 90 °C, 10 min. The class given is biochemical.

T1 sequence (Q97UI4 entry or part of it): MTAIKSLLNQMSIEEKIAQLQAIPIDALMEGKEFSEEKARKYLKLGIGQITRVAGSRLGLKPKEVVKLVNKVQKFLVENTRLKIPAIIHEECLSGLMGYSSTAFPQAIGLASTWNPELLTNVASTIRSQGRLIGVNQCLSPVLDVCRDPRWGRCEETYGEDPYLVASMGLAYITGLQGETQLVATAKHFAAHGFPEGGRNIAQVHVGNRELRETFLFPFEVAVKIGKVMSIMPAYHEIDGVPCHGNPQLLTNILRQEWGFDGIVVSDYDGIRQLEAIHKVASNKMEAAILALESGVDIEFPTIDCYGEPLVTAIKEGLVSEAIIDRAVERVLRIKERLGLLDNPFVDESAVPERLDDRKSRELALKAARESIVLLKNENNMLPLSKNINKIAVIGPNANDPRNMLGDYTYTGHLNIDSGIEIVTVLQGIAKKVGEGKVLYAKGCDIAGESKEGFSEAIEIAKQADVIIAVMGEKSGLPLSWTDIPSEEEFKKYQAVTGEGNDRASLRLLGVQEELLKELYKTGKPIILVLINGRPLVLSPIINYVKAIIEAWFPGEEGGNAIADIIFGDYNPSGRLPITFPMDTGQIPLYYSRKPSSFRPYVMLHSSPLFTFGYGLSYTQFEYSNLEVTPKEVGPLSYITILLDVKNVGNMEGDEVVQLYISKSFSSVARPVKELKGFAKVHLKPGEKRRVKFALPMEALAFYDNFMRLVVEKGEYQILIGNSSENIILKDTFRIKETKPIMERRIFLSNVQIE

For the compound `O=[N+]([O-])c1ccc(O[C@@H]2OC[C@@H](O)[C@H](O)[C@H]2O)cc1` [pNPX], the “colorimetric pNP release at 420 nm” value is reported as “performed with 4-nitrophenol-β-D-xylopyranoside (pNPX) as a substrate”.
